The target in one experiment is T1, Falcipain 2 (Plasmodium falciparum, UniProt Q9N6S8).
T1 sequence (Q9N6S8 whole entry): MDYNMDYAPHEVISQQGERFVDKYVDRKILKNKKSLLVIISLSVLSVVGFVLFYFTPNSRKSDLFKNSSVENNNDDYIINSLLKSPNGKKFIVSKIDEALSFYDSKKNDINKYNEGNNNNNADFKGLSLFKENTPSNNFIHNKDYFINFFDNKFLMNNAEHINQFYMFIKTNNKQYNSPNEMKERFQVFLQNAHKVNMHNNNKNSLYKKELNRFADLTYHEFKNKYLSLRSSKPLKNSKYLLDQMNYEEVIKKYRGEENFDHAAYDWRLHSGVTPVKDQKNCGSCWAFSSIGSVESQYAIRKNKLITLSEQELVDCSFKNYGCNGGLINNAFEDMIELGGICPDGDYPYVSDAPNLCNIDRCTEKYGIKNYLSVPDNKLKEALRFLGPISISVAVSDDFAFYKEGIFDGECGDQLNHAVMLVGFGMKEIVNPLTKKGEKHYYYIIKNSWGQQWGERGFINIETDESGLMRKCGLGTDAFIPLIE
In words: Inhibitory concentration against falcipain-2 of Plasmodium falciparum W2.

Experiment [1] has as its system Trypanosoma brucei rhodesiense. In words: Effective dose to inhibit proliferation of Trypanosoma brucei rhodesiense in cell assay. It is filed as functional. The following applies: read-out: ED50 (the source's name).
In a further experiment the target is Rhodesain (Trypanosoma brucei rhodesiense, UniProt Q95PM0). Kind of experiment: Inhibitory concentration against rhodesain of Trypanosoma brucei rhodesience.
The test system of another experiment is Trypanosoma cruzi. In words: Effective dose to inhibit proliferation of Trypanosoma cruzi in cell assay. The following applies: read-out: ED50 (the source's name). The class given is functional.
Another experiment has as its target Cruzipain (Trypanosoma cruzi, UniProt P25779). In words: Inhibitory concentration against cruzain of Trypanosoma cruzi.
In experiment [2] the test system is Plasmodium falciparum. In words: Effective dose against Plasmodium falciparum W2; Not active. The class given is functional. The following applies: read-out: ED50 (the source's name).
For experiment [3], the system named is Plasmodium falciparum. In words: Effective dose against Plasmodium falciparum W2. It is filed as functional. The following applies: read-out: ED50 (the source's name).

Chain of Cruzipain (P25779 whole entry): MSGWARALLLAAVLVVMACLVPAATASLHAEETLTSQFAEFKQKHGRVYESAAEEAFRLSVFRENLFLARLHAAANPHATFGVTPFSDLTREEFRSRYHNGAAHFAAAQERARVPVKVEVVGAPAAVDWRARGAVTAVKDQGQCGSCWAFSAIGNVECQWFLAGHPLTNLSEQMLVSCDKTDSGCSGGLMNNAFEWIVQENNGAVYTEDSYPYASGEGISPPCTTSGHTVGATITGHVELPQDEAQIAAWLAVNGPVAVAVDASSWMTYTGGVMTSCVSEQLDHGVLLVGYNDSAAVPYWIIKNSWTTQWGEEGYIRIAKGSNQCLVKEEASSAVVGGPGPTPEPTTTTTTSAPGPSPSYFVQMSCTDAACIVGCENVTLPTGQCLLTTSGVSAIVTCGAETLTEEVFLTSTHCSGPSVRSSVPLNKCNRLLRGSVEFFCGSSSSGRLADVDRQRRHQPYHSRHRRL
Chain of Rhodesain (Q95PM0 whole entry): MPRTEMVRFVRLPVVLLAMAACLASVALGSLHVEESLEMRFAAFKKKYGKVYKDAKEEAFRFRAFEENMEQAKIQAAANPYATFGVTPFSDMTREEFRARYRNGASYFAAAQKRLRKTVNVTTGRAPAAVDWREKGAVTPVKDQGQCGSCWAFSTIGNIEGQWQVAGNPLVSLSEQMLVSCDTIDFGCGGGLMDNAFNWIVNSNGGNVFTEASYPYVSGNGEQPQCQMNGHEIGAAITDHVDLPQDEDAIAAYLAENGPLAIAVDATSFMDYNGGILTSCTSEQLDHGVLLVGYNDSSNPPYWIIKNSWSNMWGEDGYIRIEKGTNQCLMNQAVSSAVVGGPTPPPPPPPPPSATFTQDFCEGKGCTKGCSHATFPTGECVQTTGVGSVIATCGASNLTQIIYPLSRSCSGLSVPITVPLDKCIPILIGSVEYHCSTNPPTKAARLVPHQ

For `CCCC/C(=N\NC(N)=S)c1ccc(Cl)c(Cl)c1`, the figures for the IC50 against Falcipain 2, against Rhodesain and at Cruzipain were 0.62 µM, 0.06 µM and 0.019 µM, respectively. For the same molecule, the EC50 came to 0.13 µM in experiment [1] and 3 µM in the experiment with Trypanosoma cruzi.

For the molecule `N/C(S)=N/N=C(\C=C\c1ccccc1)c1ccc(Cl)c(Cl)c1`, the figures for the IC50 at Falcipain 2, against Rhodesain and against Cruzipain were 0.47 µM, 0.038 µM and 0.03 µM, respectively. In addition, the EC50 in experiment [1] turned out to be 0.072 µM; in the experiment with Plasmodium falciparum [2], 9 µM.

On to `N/C(S)=N/N=C(/c1ccc(Cl)c(Cl)c1)C1CCCCC1`, for which the IC50 on Falcipain 2 came to 14 µM; on Rhodesain, 1.1 µM; against Cruzipain, 3 µM.

Consider `N/C(S)=N/N=C(\COc1ccccc1)c1ccc(Cl)c(Cl)c1`, for which the figures for the IC50 at Falcipain 2, at Rhodesain and on Cruzipain were 0.375 µM, 0.07 µM and 0.03 µM, respectively. The EC50 in experiment [1] amounted to 1.5 µM.

Take `Cc1ccc(/C(=N\N=C(\N)S)c2ccc(Cl)c(Cl)c2)cc1`: the IC50 at Falcipain 2 was determined as 1.8 µM; at Rhodesain it was 0.038 µM; on Cruzipain, 0.04 µM.

In the case of `N/C(S)=N/N=C(\CCc1ccccc1)c1ccc(Cl)c(Cl)c1`, the IC50 was 2.6 µM against Falcipain 2, 0.09 µM against Rhodesain and 0.04 µM on Cruzipain. Moreover, in experiment [1], the EC50 is 0.069 µM.

Take `N/C(S)=N/N=C(/c1ccc(Cl)c(Cl)c1)C1CC1c1ccccc1` (configuration not stated): the IC50 against Falcipain 2 was found to be 0.64 µM; against Rhodesain it was 0.06 µM; on Cruzipain, 0.03 µM. Moreover, the EC50 in experiment [1] stood at 0.57 µM.

As to `N/C(S)=N/N=C(\Cc1ccccc1)c1ccc(Cl)c(Cl)c1`, the results for the IC50 against Falcipain 2, at Rhodesain and on Cruzipain were 8.4 µM, 0.08 µM and 0.08 µM, respectively. Moreover, the EC50 in the experiment with Plasmodium falciparum [3] came to 19 µM.

On Rhodesain, `CC/C(=N\NC(N)=S)c1cccc(Br)c1` returned an IC50 of 0.23 µM.

As for `CC(C)(C)/C(=N\N=C(\N)S)c1ccc(Cl)c(Cl)c1`, the IC50 against Rhodesain was 3.33 µM; at Cruzipain, > 10 µM.

Consider `CC/C(=N\N=C(\N)S)c1ccc(Cl)c(Cl)c1`, for which the values for the IC50 on Rhodesain and against Cruzipain were 0.11 µM and 0.03 µM, respectively.

For orientation: IC50 means the concentration that inhibits the measured activity by half. Higher therefore signals weaker potency in that assay.
